Test results as given in patent publication US6469052B2, “Compounds for the photodecontamination of pathogens in blood” (Cerus Corporation, priority 1993, dated 2002).
Where two headings read alike, the source gives them in different places.

Key:
[1] = system: Salmonella typhimurium TA97a
Text: (§1) The second property that is important in testing a compound for use in methods of the present invention is mutagenicity. The most widely used mutagen/carcinogen screening assay is the Ames test. This assay is described by D. M. Maron and B. N. Ames in Mutation Research 113: 173 ( 1983) and a specific screen is described in detail in Example 17, below. The Ames test utilizes several unique strains of Salmonella typhimurium that are histidine- dependent for growth and that lack the usual DNA repair enzymes. The frequency of normal mutations that render the bacteria independent of histidine (i.e., the frequency of spontaneous revertants) is low. The test allows one to evaluate the impact of a compound on this revertant frequency.
(§2) In this example the compounds of the present invention are tested for their dark mutagenicity using an Ames assay. The procedures used for the Salmonella mutagenicity test as described in detail by Maron and Ames were followed exactly. Maron, D. M. and B. N. Ames, Mutation Research 113: 173 ( 1983). A brief description for each procedure is given here. The tester strains TA97a, TA98, TA100, TA102, TA1537 and TA1538 were obtained from Dr. Ames. TA97a, TA98, TA1537 and TA1538 are frameshift tester strains. TA100 and TA102 are base-substitution tester strains. Upon receipt each strain was cultured under a variety of conditions to confirm the genotypes specific to the strains.
(§3) The first tests done with the strains were to determine the range of spontaneous reversion for each of the strains. With each mutagenicity experiment the spontaneous reversion of the tester strains to histidine independence was measured and expressed as the number of spontaneous revertants per plate. This served as the background controls.
(§4) For all experiments, the pre-incubation procedure was used. In this procedure one vial of each tester strain was thawed and 20 μL of this culture was added to 6 mL of Oxoid Nutrient Broth #2. This solution was allowed to shake for 10 hours at 37° C. In the pre-incubation procedure, 0.1 mL of this overnight culture was added to each of the required number of sterile test tubes. To half of the tubes 0.5 mL of a 10% S-9 solution containing Aroclor 1254 induced rat liver extract (Molecular Toxicology Inc., Annapolis, Md.), and MgCl2, KCl, glucose-6-phosphate, NADP, and sodium phosphate buffer (Sigma, St. Louis, Mo.) were added. To the other half of the tubes 0.5 mL of 0.2M sodium phospate buffer, pH 7.4, was used in place of the S-9 mixture (the -S9 samples). Finally 0.1 mL of the test solution containing either 0, 0.1, 0.5, 1, 5, 10, 50, 100, 250, or 500 μg/mL of the test compound was added. The 0.7 mL mixture was vortexed and then pre-incubated while shaking for 20 minutes at 37° C. After shaking, 2 mL of molten top agar supplemented with histidine and biotin were added to the 0.7 mL mixture and immediately poured onto a minimal glucose agar plate (volume of base agar was 20 mL). The top agar was allowed 30 minutes to solidify and then the plates were inverted and incubated for 44 hours at 37° C. After incubation the number of revertant colonies on each plate were counted. […] (“n” represents the number of replicates performed for each data point.)
(§5) Maron and Ames (1983) describe the conflicting views with regard to the statisical treatment of data generated from the test.

[2] = system: Salmonella typhimurium TA1537; assay: Ames assay (dark mutagenicity), strain TA1537
Text: as §1, §2, §3, §4, §5

[3] = system: Duck Hepatitis B Virus (DHBV); assay: Inactivation of DHBV in platelet concentrate, PCR amplification readout; settings: 5J/CM^2 UVA
Protocol: This example describes the protocol for inactivation of Duck Hepatitis B Virus (DHBV), a model for Hepatitis B Virus, using compounds of the present invention. DHBV in duck yolk was added to platelet concentrate (PC) to a final concentration of 2×10^7 particles per mL and mixed by gentle rocking for ≧15 min. […] Samples, including controls without added psoralen, were irradiated with 5J/CM^2 UVA, with mixing at 1 J/cm^2 increments. After irradiation, leukocytes and platelets were separated from virus by centrifugation. […] Samples were extracted with phenol-chloroform and chloroform, followed by ethanol precipitation. […] PCR amplicons were generated using primers pairs DCD03/DCD05 (127 bp), DCD03/DCD06 (327 bp) and DCD03/DCD07 (1072 bp). PCR was performed in a standard PCR buffer containing 0.2 mM each deoxyribonucleoside 5′-triphosphates (dATP, dGTP, dCTP, and dTTP), […], and 0.5 units Taq polymerase per […]. 30 cycles of amplification were performed with the following thermal profile: 95° C. 30 sec, 60° C. 30 sec, 72° C. 1 min. The amplification was followed by a 7 min incubation at 72° C. to yield full length products. […] was added at an amount of […] in order to detect and quantify the resulting products. Products were separated by electrophoresis on denaturing polyacrylamide slab gels and counted. The absence of signal in a given reaction was taken to indicate effective inactivation of DHBV.

[4] = system: Chinese hamster ovary (CHO) cells; assay: In vitro genotoxicity screen in CHO cells; assay type: cell-based; settings: approximately 3 hours exposure in the dark, dilutions 1-1000 μg/ml
Text: The positive control was methylmethane sulfonate.
Coverslips were mounted with Permount.

[5] = system: Salmonella typhimurium TA1538; assay: Ames assay (dark mutagenicity), strain TA1538
Text: as §1, §2, §3, §4, §5

[6] = system: Salmonella typhimurium TA102; assay: Ames assay (dark mutagenicity), strain TA102
Text: as §1, §2, §3, §4, §5

[7] = system: Salmonella typhimurium TA100
Text: as §1, §2, §3, §4, §5

HIV-1 = settings: concentrations of 64 μM of compound or higher
Protocol: Pathogen inactivation efficiency of several compounds of the present invention was evaluated by examining the ability of the compounds to inactivate cell-free virus (HIV). Inactivation of cell-free HIV was performed as follows.
As in the R17 assay, small aliquots of the compounds listed in TABLES 10 and 11, below, at the concentrations listed in the table, were added to stock HIV-1 to a total of 0.5 mL. The stock HIV (10^5-10^7 plaque forming units/mL) was in DMEM/15% FBS. […] Controls included HIV-1 stock only, HIV-1 plus UVA only, and HIV-1 plus the highest concentration of each psoralen tested, with no UVA. Post irradiation, all samples were stores frozen at −70° C. until assayed for infectivity by a microtiter plaque assay. Aliquots for measurement of residual HIV infectivity in the samples treated with a compound of the present invention were withdrawn and cultured.
Residual HIV infectivity was assayed using an MT-2 infectivity assay. […] After 24 to 48 hours, the red fluorescence-stained microplaques were visualized by placing the plates on an 8,000 μW/cm^2 304 nm UV light box (Fotodyne, Inc., New Berlin, Wis.). The plaques were counted at a magnification of ×20 to ×25 through a stereomicroscope.

[8] = system: Salmonella tester strains TA97a, TA98, TA100, TA102, TA1537 and TA1538; assay: Ames assay, overall assessment over the tester strains
Text: as §1, §2, §3
For all experiments, the pre-incubation procedure was used. In this procedure one vial of each tester strain was thawed and 20 μL of this culture was added to 6 mL of Oxoid Nutrient Broth #2. This solution was allowed to shake for 10 hours at 37° C. In the pre-incubation procedure, 0.1 mL of this overnight culture was added to each of the required number of sterile test tubes. To half of the tubes 0.5 mL of a 10% S-9 solution containing Aroclor 1254 induced rat liver extract (Molecular Toxicology Inc., Annapolis, Md.), and MgCl2, KCl, glucose-6-phosphate, NADP, and sodium phosphate buffer (Sigma, St. Louis, Mo.) were added. To the other half of the tubes 0.5 mL of 0.2M sodium phospate buffer, pH 7.4, was used in place of the S-9 mixture (the -S9 samples). Finally 0.1 mL of the test solution containing either 0, 0.1, 0.5, 1, 5, 10, 50, 100, 250, or 500 μg/mL of the test compound was added. […] After incubation the number of revertant colonies on each plate were counted. […]

human platelets = settings: 100 μM compound, 5 Joules/cm^2, 5 days storage
Protocol: (§6) To measure the effects of the present compounds and methods of decontamination on platelet function using these four indicators, four samples were prepared for each compound tested, two control samples and two containing compound. Three units of human platelets were obtained from the Sacramento Blood Center, Sacramento, Calif. These were each transferred under sterile conditions to 50 ml centrifuge tubes, then aliquots of each unit were transferred into a second set of 50 ml sterile centrifuge tubes. To each centrifuge tube containing platelet concentrate (PC), an aliquot of compound stock was added to reach a final concentration of 100 μM of compound. […] The samples were pipetted gently up and down to mix. Then aliquots (either 3 ml or 8 ml) of each sample was transferred to two sterile Teflon™ Medi-bags™ (American Fluoroseal Co., Silver Springs, Md.) (presently owned by The West Company, Lionville, Pa.). Samples were treated in one of two different sized bags, having either 3 ml or 8 ml capacity. […] For each compound tested, two control samples without compound were prepared by again removing aliquots of platelet concentrate (17 ml if using an 8 ml bag, […] if using a 3 ml bag) from the same one of the first set of 50 ml centrifuge tubes from which the compound sample was drawn, and dividing into Medibags, as before. One of each pair of Medibags containing a compound, and one of each pair of control Medibags, were illuminated for 5 Joules/cm^2 on the device described in Example 1, above. Then all experimental and control Medibags were placed on a platelet shaker for storage for 5 days. The same experiments were repeated several times to obtain more statistically meaningful data, as represented by “n”, the number of data points represented, in the graphs of FIGS. 21-24, discussed below.
A Sysmex cell counter was used to measure platelet count in the platelet samples. Samples were diluted 1:3 in blood bank saline.

mouse reticulocytes = settings: increased dose levels, male Balb/c mice, tail vein
Protocol: Male Balb/c mice were then injected with 0.1 ml of a compound solution via the tail vein. At least 3 mice were injected per dose level. Saline only was used as a negative control. For a positive control, cyclophosphamide (cycloPP) was administered at a dose of 30 mg/kg. In the experimental group, the injections were repeated once per day for four days. In the positive control group, the sample was administered only once, on day three. On day 5, several microliters of blood were withdrawn from each subject and smeared on a glass slide. Cells were fixed in absolute methanol and stored in a slide rack.
For analysis, cells were stained with acridine orange and visualized under a fluorescence microscope by counting: (i) the number of reticulocytes per 5000 erythrocytes; and (ii) the number of micronucleated reticulocytes per 1000 reticulocytes. Reticulocytes were distinguished by their red fluorescence due to the presence of RNA. Micronuclei were distinguished by their green fluorescence due to the presence of DNA. The percentage of reticulocytes (%PCE) was then calculated. A decrease in the frequency of […] in the percentage of reticulocytes, is an indication of bone marrow toxicity. The percentage of reticulocytes with micronuclei (%PCE with MN) was also calculated. An increase in %PCE with MN is a measure of clastogenicity.
After initial results were determined, the experiment was repeated using increased dose levels, until: (i) Micronucleus formation was seen; or (ii) Bone marrow toxicity was observed; or (ii) The lethal dose was reached; or (iv) A dose of 5 g/kg was administered.

[9] = system: GMP-140 (p-selectin) on platelets; assay: Platelet function: GMP-140 expression (flow cytometry, CD62); assay type: cell-based, human; settings: 100 μM compound, 5 Joules/cm^2, 5 days storage
Protocol: as §6

[10] = system: Salmonella typhimurium TA98; assay: Ames assay (dark mutagenicity), strain TA98
Text: as §1, §2, §3, §4, §5

## Cc1oc2c(C)c3oc(=O)cc(C)c3cc2c1CN [AMT, 4′-Aminomethyl-4,5′,8-trimethylpsoralen, reference compound]
[1]; TA97a −S9, 0.1 μg/plate
  revertants per plate: 14
[1]; TA97a −S9, 0.5 μg/plate
  revertants per plate: 9
[1]; TA97a −S9, 1 μg/plate
  revertants per plate: 54
[1]; TA97a −S9, 5 μg/plate
  revertants per plate: 73
[2]; TA1537
  dose at which frameshift mutagenicity was shown: 5 μg/plate
[2]; TA1537 +S9, 100 μg/plate
  revertants per plate: 500
[3]
  PCR amplification of the 1072 bp DHBV amplicon: a signal could be detected
[3]; 70 and 100 mM levels
  PCR amplification of the 1072 bp DHBV amplicon: inhibited PCR amplification
[4]
  genotoxic (toxic) concentration: 30 µg/mL
[5]; TA1538
  dose at which frameshift mutagenicity was shown: 1 μg/plate
[5]; TA1538 −S9, 0.1 μg/plate
  revertants per plate: 3
[5]; TA1538 −S9, 0.5 μg/plate
  revertants per plate: 4
[5]; TA1538 −S9, 1 μg/plate
  revertants per plate: 4
[5]; TA1538 −S9, 5 μg/plate
  revertants per plate: 13
[5]; TA1538 −S9, 10 μg/plate
  revertants per plate: 14
[6]; TA102 +S9, 0.1 μg/plate
  revertants per plate: −20
[6]; TA102 +S9, 0.5 μg/plate
  revertants per plate: 5
[6]; TA102 +S9, 1 μg/plate
  revertants per plate: −17
[6]; TA102 +S9, 5 μg/plate
  revertants per plate: 51

## Cc1oc2c(C)c3oc(=O)cc(C)c3cc2c1CCN [Compound 3, 4′-(2-aminoethyl)-4,5′,8-trimethylpsoralen]
[7]; TA100 +S9, 5 μg/plate
  revertants per plate: −19
[7]; TA100 +S9, 10 μg/plate
  revertants per plate: 8
HIV-1
  HIV inactivation activity compared with AMT: significantly more active than AMT
[8]; strains tested: TA100 and TA1538, ±S9, 5 and 10 μg/plate
  mutagenicity (overall): no mutagenicity
[5]; TA1538 −S9, 5 μg/plate
  revertants per plate: 0
[5]; TA1538 −S9, 10 μg/plate
  revertants per plate: −6

## Cc1cc(=O)oc2c(C)c3oc(CNCCCCN)c(C)c3cc12 [Compound 17, 5′-(6-amino-2-aza)hexyl-4,4′,8-trimethylpsoralen]
Human platelets
  platelet count compared with samples treated with light alone: higher platelet count than samples treated with light alone
Mouse reticulocytes
  outcome of dose escalation in the micronucleus assay: the acutely lethal dose was reached before there were any signs of bone marrow toxicity or micronucleus formation
[9]
  GMP-140 expression: sample treated with light and psoralen (PCD) versus day 5 untreated control (D5): little or no difference

## Cc1cc(=O)oc2c(C)c3oc(COCCN)c(C)c3cc12 [Compound 18, 5′-(4-amino-2-oxa)butyl-4,4′,8-trimethylpsoralen]
[2]; TA1537 +S9, 10 μg/plate
  revertants per plate: 8
[2]; TA1537 +S9, 50 μg/plate
  revertants per plate: 6
[2]; TA1537 +S9, 100 μg/plate
  revertants per plate: 26
[2]; TA1537 +S9, 200 μg/plate
  revertants per plate: 42
[2]; TA1537 −S9, 10 μg/plate
  revertants per plate: 21
[2]; TA1537 −S9, 50 μg/plate
  revertants per plate: 303
[2]; TA1537 −S9, 100 μg/plate
  revertants per plate: 390
[2]; TA1537 −S9, 200 μg/plate
  revertants per plate: 225
Human platelets
  platelet count compared with samples treated with light alone: higher platelet count than samples treated with light alone
[10]; TA98 +S9, 10 μg/plate
  revertants per plate: 8
[10]; TA98 +S9, 50 μg/plate
  revertants per plate: 6
[10]; TA98 +S9, 100 μg/plate
  revertants per plate: 26
[10]; TA98 +S9, 200 μg/plate
  revertants per plate: 42
[10]; TA98 −S9, 10 μg/plate
  revertants per plate: 21
[10]; TA98 −S9, 50 μg/plate
  revertants per plate: 303
[10]; TA98 −S9, 100 μg/plate
  revertants per plate: 390
[10]; TA98 −S9, 200 μg/plate
  revertants per plate: 225
[8]; in the absence of S9
  mutagenic response compared with AMT: higher in the absence of S9, but still was significantly below that of AMT
[8]; in the presence of S9 in strains TA 9o and TA 1537
  mutagenic response: only a weak response at high concentrations
Mouse reticulocytes
  outcome of dose escalation in the micronucleus assay: the acutely lethal dose was reached before there were any signs of bone marrow toxicity or micronucleus formation
[9]
  GMP-140 expression: sample treated with light and psoralen (PCD) versus day 5 untreated control (D5): notable increase above the control
